Results reported in US11609178B2, “Apparatus for analysing a liquid sample comprising particles” (UNIVERSITY COURT OF THE UNIVERSITY OF ST ANDREWS, priority 2018, dated 2023).

Columns and labels:
Type in all cases: cell-based
Klebsiella = experiment: Bacterial growth over time in urine samples with different antibiotics (FIG. 10); conditions: urine samples containing Klebsiella; growth curve compared with control line
Protocol: As a first stage a biological sample containing urine is obtained. A spinning process is applied to the sample and the sample is aliquoted or otherwise divided into wells. The samples are then incubated in an incubator. After a pre-determined time, each sample, in a sample chamber, is moved into a detection configuration with the detection apparatus. This may involve placing the sample in a cuvette into the sample chamber. This may involve sequentially moving a plurality of sample chambers into the detection configuration. More than one measurement for each sample may be performed and stored to establish growth curves, for example, those shown in FIGS. 6, 7, 8 and 10.
FIG. 10 is a plot of bacterial growth as a function of time in urine samples in the presence of different types of antibiotics. The urine samples contain a significant amount of Klebsiella resistant to meropenem and susceptible to penicillin, amoxicillin, gentamicin and ciprofloxacin. The control line is the upper most line.
The second upper most line correspond to results for a urine sample treated with meropenem. The second upper most line overlaps in part with the control line. The urine sample is thus shown to be resistant to meropenem. The other lines correspond to results for urine samples treated with ciprofloxacin, gentamicin, penicillin and amoxicillin.

[1] = system: bacterial growth of samples; experiment: Detection apparatus, bacterial growth with antibiotics at EUCAST breakpoint, FIG. 8(a) / Table 1; parameters: key to S or R result (sensitive / resistant): S: sensitive; R: resistant; conditions: Table 1, FIG. 8(a); antibiotic at EUCAST breakpoint concentration
Protocol: (§1) FIG. 8(a) and FIG. 8(b) are plots showing bacterial growth of samples as a function of time in the presence of different types of antibiotics. FIGS. 8(a) and 8(b) illustrate break points for different types of antibiotics. Measurements derived using the data shown in FIGS. 8(a) and 8(b) are shown in Table 1 and Table 2, respectively.
(§2) At a fourth step, a test process is performed that includes incubation and obtaining readings. Tests will typically run for a maximum of 30 minutes.
(§3) At a fifth step, an analysis process is performed based on the readings obtained from the test process. The analysis process includes determining if the strain is sensitive or resistant to the or an antibiotic or other agent in the sample chamber based on the obtained readings. Determining whether a sample is sensitive or resistant to an antibiotic or other agent may be referred to as obtaining an S result or an R result. Determining if a sample is a S result or an R result may include comparing a reading to threshold criteria.
(§4) As a first example, if the sample fails to show a 50% inhibition, the sample will be declared R after 30 minutes. In some embodiments, the analysis process includes providing sensitivity results.

[2] = system: bacterial growth of samples; experiment: Detection apparatus, bacterial growth with antibiotics at EUCAST breakpoint, FIG. 8(b) / Table 2; parameters: key to S or R result (sensitive / resistant): S: sensitive; R: resistant; conditions: Table 2, FIG. 8(b); antibiotic at EUCAST breakpoint concentration
Protocol: as §1, §2, §3, §4

[3] = system: bacterial growth of samples; experiment: Reference susceptibility test (Vitek 2), sample of FIG. 8(b) / Table 2; conditions: Table 2, sample of FIG. 8(b)
Description: as §1

[4] = system: bacterial growth of samples; experiment: Reference susceptibility test (Vitek 2), sample of FIG. 8(a) / Table 1; conditions: Table 1, sample of FIG. 8(a)
Description: as §1

E. coli = experiment: Bacterial growth over time by light scattering at different antibiotic concentrations (FIGS. 6 and 7); conditions: from plot of detector output vs time
Description: Any suitable detection and analysis system may be used with the embodiments of FIGS. 1 to 5. In some embodiments a detection and analysis system as described in WO 2016/128747 is used. The content of WO 2016/128747 is hereby incorporated by reference. In some embodiments a light source in the form of a 635 nm wavelength laser is used (any light in the wavelength range 620-750 nm is used in some other embodiments). The laser in this embodiment is connected to a signal generator that is adapted to control a modulation frequency and phase of the laser output. The photodetector is connected to a digital phase sensitive detector (PSD). An input of an amplifier is connected to the signal generator. An output of the amplifier is connected to a digital oscilloscope 66. […]
The signal generator is arranged to modulate the output frequency of the laser source. […] The detected signal is filtered by the PSD. The PSD filters the detected signal from the photodetector. The PSD synchronizes the detected signal with the modulation applied to the light source to provide a dampening system that eliminates unwanted noise, for example, background electrical or luminous noise. The filtered signal is sent to the digital oscilloscope to be recorded. […]

Row | Molecule | susceptibility of bacteria in urine sample (Klebsiella) | S or R result (sensitive / resistant) [1] | Time To Results [1] [min] | S or R result (sensitive / resistant) [2] | Time To Results [2] [min] | Reference (Vitek 2 result) [3] | Reference (Vitek 2 result) [4] [Mg/L] | mode of action (E. coli) | minimum inhibitory concentration (MIC) (E. coli)
1 | CC1(C)S[C@@H]2[C@H](NC(=O)[C@H](N)c3ccc(O)cc3)C(=O)N2[C@H]1C(=O)O [Amoxicillin] | susceptible | (S) | 2.93 | – | – | – | – | – | –
2 | CC1(C)S[C@@H]2[C@H](NC(=O)[C@H](N)c3ccccc3)C(=O)N2[C@H]1C(=O)O [Ampicillin] | – | – | – | (R) | >30 | >0.5 Mg/L | 8 | – | –
3 | O=C(O)c1cn(C2CC2)c2cc(N3CCNCC3)c(F)cc2c1=O [Ciprofloxacin] | susceptible | (S) | 4.4 | (S) | 3.37 | 0.5 Mg/L | ≤0.25 | – | –
4 | CC[C@H]1OC(=O)[C@H](C)[C@@H](O[C@H]2C[C@@](C)(OC)[C@@H](O)[C@H](C)O2)[C@H](C)[C@@H](O[C@@H]2O[C@H](C)C[C@H](N(C)C)[C@H]2O)[C@](C)(O)C[C@@H](C)C(=O)[C@H](C)[C@@H](O)[C@]1(C)O [Erythromycin] | – | – | – | (S) | 3.3 | 1 Mg/L | – | – | –
5 | C[C@@H](O)[C@H]1C(=O)N2C(C(=O)O)=C(S[C@@H]3CN[C@H](C(=O)N(C)C)C3)[C@H](C)[C@H]12 [Meropenem, meropenem] | resistant | (S) | 2.57 | (S) | 2.2 | – | ≤0.25 | causes lysis and a reduction in scattering | –
6 | COc1c(N2C[C@@H]3CCCN[C@@H]3C2)c(F)cc2c(=O)c(C(=O)O)cn(C3CC3)c12 [Moxifloxacin] | – | – | – | – | – | – | ≤0.25 | – | –
7 | O=C1CN(/N=C/c2ccc([N+](=O)[O-])o2)C(=O)N1 [Nitrofurantoin] | – | – | – | (S) | 3.37 | 16 Mg/L | – | – | –
8 | COc1cc(Cc2cnc(N)nc2N)cc(OC)c1OC [Trimethoprim] | – | (S) | 0.73 | (S) | 7.33 | 0.5-2 Mg/L | ≤0.5 | – | –
9 | CN[C@H](CC(C)C)C(=O)N[C@H]1C(=O)N[C@@H](CC(N)=O)C(=O)N[C@H]2C(=O)N[C@H]3C(=O)N[C@H](C(=O)N[C@H](C(=O)O)c4cc(O)cc(O)c4-c4cc3ccc4O)[C@H](O)c3ccc(c(Cl)c3)Oc3cc2cc(c3O[C@@H]2O[C@H](CO)[C@@H](O)[C@H](O)[C@H]2O[C@H]2C[C@](C)(N)[C@H](O)[C@H](C)O2)Oc2ccc(cc2Cl)[C@H]1O [Vancomycin] | – | – | – | (S) | 7.33 | 1 Mg/L | – | – | –
10 | Augmentin (co-amox) | – | (S) | 2.2 | (R) | >30 | ≤2 Mg/L | 2 | – | –
11 | gentamicin | susceptible | (S) | 0.73 | (S) | 0.37 | 0.5-8 Mg/L | ≤1 | – | below 2 mg/L
12 | penicillin | susceptible | – | – | – | – | – | – | – | –
